Reference: patent US8465763B2, “3-hydroxychlormadinone acetate for the topical treatment of androgen-dependent skin diseases” (Richter Gedeon Nyrt., priority 2006, dated 2013)
Entries after “also recorded” stand apart in the source; their conditions may differ.

What was measured:
[1] = Permeation through human abdominal skin in a flow-through cell; format: in vitro ADME; conditions: for average dose released by human abdominal skin after 24 hours: mean of 3 independent experiments, 5% suspension in aqueous 0.05% polysorbate 80 solution, dissected skin approx. 300 μm, approx. 19.7 mm^2, 34° C., receptor fluid pH 7.35; for skin penetration compared with CMA (times lower) / skin permeability / skin penetration compared with CMA (in words): relative to CMA
Text: Determination of Permeation of Chlormadinone Acetate (CMA) and 3β-Hydroxychlormadinone Acetate Through Human Abdominal Skin
Fragments of human abdominal skin arising during stomach reduction operations were placed in a Petri dish with dissection solution (Na^+: 144 mmol/l, K^+: 5.9 mmol/l, Ca^2+: 3.7 mmol/l, Cl,^−: 157 mmol/l). The skin fragments were reduced in thickness from the corium side, in several steps, down to a layer thickness of approx. 300 μm, while being kept moist with the dissection solution. Mechanically stable dissected skin was thus obtained, consisting of epidermis with approx. 150-200 μm of cutis. The layer thickness of the dissected skin fragments was determined by measuring with an external screw-type micrometer made by MITUTOYO. The area of the dissected skin fragments used amounted to approx. 19.7 mm^2.
Permeation of CMA respectively 3β-hydroxychlormadinone acetate through human abdominal skin was determined in a flow-through cell, which is illustrated schematically in FIG. 1. A receptor fluid (1) was here pumped past the underside of the dissected skin (2) with a peristaltic pump at a rate of 270 μl per hour. The dissected skin was clamped between the upper part (3) and the lower part (4) of the permeability cell (5). From above, vehicle with 3β-hydroxychlormadinone acetate (5% suspension in aqueous 0.05% polysorbate 80 solution) or chlormadinone acetate (5% suspension in aqueous 0.05% polysorbate 80 solution) was applied in each case to the skin, which then diffused through the dissected skin (2) into the receptor fluid (1). The dissected skin was moistened by a stationary donor fluid (9), which is situated in a reservoir (7). The internal diameter of the receptor fluid feed line (6) was 0.6 mm, and the receptor fluid volume below the skin amounted to approx. 80 μl. The receptor fluid (1) was analysed at fixed intervals by means of a fraction collector (8) and then by HPLC. These experiments allowed a quantitative statement to be made about the amount of substance diffused as a function of time.
An aqueous, isotonic tris buffer (20 mmol/l) with 20% ethanol was used as the receptor fluid and adjusted with NaCl to 310 mosmol (0.9 wt. %). The pH value of the receptor fluid was 7.35. A hole punch was used to punch a piece corresponding to the area of the dissected skin out of a plaster containing the active ingredient to be investigated, said piece being stuck to the dissected skin. […] The experiments were carried out at a test temperature of 34° C. In each case 3 independent series of measurements were made with CMA respectively 3β-hydroxychlormadinone acetate.

[2] = Antiandrogenic efficacy compared with CMA; conditions: no method described

CC(=O)O[C@]1(C(C)=O)CC[C@H]2[C@@H]3C=C(Cl)C4=CC(=O)CC[C@]4(C)[C@H]3CC[C@@]21C [CMA, chlormadinone acetate]
average dose released by human abdominal skin after 24 hours [1]: 4.4 µg

CC(=O)O[C@]1(C(C)=O)CC[C@H]2[C@@H]3C=C(Cl)C4=C[C@@H](O)CC[C@]4(C)[C@H]3CC[C@@]21C [3β-hydroxychlormadinone acetate, 17α-acetoxychloropregna-4,6-dien-3β-ol-20-one]
antiandrogenic efficacy relative to CMA (ratio) [2]: 0.7 times
average dose released by human abdominal skin after 24 hours [1]: 0.7 µg
skin penetration compared with CMA (times lower) [1]: 6 times
skin permeability / skin penetration compared with CMA (in words) [1]: far lesser degree of skin penetration compared with CMA; also recorded: far less than that of CMA

CC(=O)O[C@]1(C(C)=O)CC[C@H]2[C@@H]3C=C(Cl)C4=C[C@H](O)CC[C@]4(C)[C@H]3CC[C@@]21C [3α-hydroxychlormadinone acetate, 17α-acetoxychloropregna-4,6-dien-3α-ol-20-one]
antiandrogenic efficacy relative to CMA (ratio) [2]: 0.7 times
skin penetration compared with CMA (times lower) [1]: 6 times
skin permeability / skin penetration compared with CMA (in words) [1]: far lesser degree of skin penetration compared with CMA
